Common to all, as to type: in vivo
One assay concerns ABUTH. In words: Pre-emergence biological efficacy (Table 3). Particulars: after 13 days; for pest or weed control at 1000 g/ha: Abutilon theophrasti, 312 h, read-out: evaluation (100=total damage to plant; 0=no damage to plant). The method, then: (§1) Seeds of weeds and/or crops were sown in standard soil in pots. After cultivation for one day under controlled conditions in a glasshouse (at 24/19° C., day/night; 16 hours light), the plants were sprayed with an aqueous spray solution derived from the formulation of the technical active ingredient in a small amount of acetone and a special solvent and emulsifier mixture referred to as AMA (11.12% Emulsogen EL360 TM+44.44% N-methylpyrrolidone+44.44% Dowanol DPM glycol ether), to create a 50 g/l solution which was then diluted using 0.2% Genapol X080 as diluent to give the desired final dose of test compound.
(§2) The test plants were then grown under controlled conditions in the glasshouse (at 24/18° C., day/night; 15 hours light; 50% humidity) and watered twice daily. After 13 days the test was evaluated (100=total damage to plant; 0=no damage to plant).

The subject of the next assay is AMARE. In words: Pre-emergence biological efficacy (Table 3). The conditions noted are these: 1000 g/ha, after 13 days; for pest or weed control at 1000 g/ha: Amaranthus retroflexus, 312 h, read-out: evaluation (100=total damage to plant; 0=no damage to plant). The method, then:
as §1, §2

Another assay concerns IPOHE. Briefly: Pre-emergence biological efficacy (Table 3). Particulars: 1000 g/ha, after 13 days; for pest or weed control at 1000 g/ha: Ipomoea hederacea, 312 h, read-out: evaluation (100=total damage to plant; 0=no damage to plant). The method, then: as §1, §2
Another assay concerns STEME. In words: Pre-emergence biological efficacy (Table 3). The conditions noted are these: after 13 days; for pest or weed control at 1000 g/ha: 312 h, read-out: evaluation (100=total damage to plant; 0=no damage to plant). The method, then: as §1, §2
Another assay relates to ZEAMX. In words: Pre-emergence biological efficacy (Table 3). The conditions noted are these: 1000 g/ha, after 13 days; for plant injury at 1000 g/ha: 312 h, read-out: evaluation (100=total damage to plant; 0=no damage to plant). On the procedure:
as §1, §2

A further assay relates to weeds and/or crops. In words: Post-emergence biological efficacy (Table 4). Particulars: 1000 g/ha, evaluated after 13 days; for pest or weed control at 1000 g/ha: 312 h. On the procedure: as §1, with “14 days” for “one day”, “F50” for “AMA”
as §2

The subject of a further assay is ECHCG. Briefly: Pre-emergence biological efficacy (Table 3). The conditions noted are these: Echinochloa crus-galli, 312 h, 1000 g/ha, after 13 days, read-out: evaluation (100=total damage to plant; 0=no damage to plant). On the procedure:
as §1, §2

Setting [1] is: STEME, read-out: damage to plant STEME (100=total damage; 0=no damage).
[2] abbreviates: ZEAMX, read-out: damage to plant ZEAMX (100=total damage; 0=no damage).
Where [3] appears, read: Abutilon theophrasti, ABUTH, read-out: damage to plant ABUTH (100=total damage; 0=no damage).
[4] abbreviates: Amaranthus retroflexus, AMARE, read-out: damage to plant AMARE (100=total damage; 0=no damage).
The mark [5] stands for this setting: Ipomoea hederacea, IPOHE, read-out: damage to plant IPOHE (100=total damage; 0=no damage).
Setting [6] is: Echinochloa crus-galli, ECHCG, read-out: damage to plant ECHCG (100=total damage; 0=no damage).

SMILES strings stand for the structures. Read-outs that look alike come from different tables or passages of the source.

Consider `O=C(O)C(F)(F)c1cccc2cccnc12` [Compound 1-403, 2,2-Difluoro-2-(quinoline-8-yl)acetic acid], for which the pest or weed control at 1000 g/ha with ABUTH was found to be 80%; in the assay with AMARE, 80%; with IPOHE it was 90%; with STEME, 70%; with weeds and/or crops (setting [1]), 80%; in the assay on weeds and/or crops (setting [2]), 20%. For the same compound, the pest or weed control at 1000 g/ha in the assay on weeds and/or crops (setting [3]) stood at 80%; with weeds and/or crops (setting [4]), 90%; in the assay on weeds and/or crops (setting [5]), 70%. Besides, the plant injury at 1000 g/ha with ZEAMX turned out to be 30%.
Consider `Nc1cc(Cl)c(Cl)c(C(F)(F)C(=O)O)c1` [Compound 1-77, 3-[carboxy(difluoro)methyl]-4,5-dichloroanilinium], for which the pest or weed control at 1000 g/ha with ABUTH was 10%; in the assay with AMARE, 10%; with IPOHE it was 30%; in the assay with STEME it was 10%; in the assay with weeds and/or crops (setting [1]), 30%; with weeds and/or crops (setting [2]), 10%. In addition, the pest or weed control at 1000 g/ha in the assay with weeds and/or crops (setting [4]) is 60%; in the assay on weeds and/or crops (setting [6]), 0%; in the assay on weeds and/or crops (setting [5]) it was 10%. For the same compound, the plant injury at 1000 g/ha in the assay on ZEAMX was found to be 0%.
As to `CCc1cccc(C(F)(F)C(=O)O)c1Cl` [Compound 1-196, 2-(2-Chloro-3-ethyl-phenyl)-2,2-difluoro-acetic acid], the pest or weed control at 1000 g/ha in the assay on ABUTH came out at 70%; in the assay on AMARE it was 40%; in the assay on IPOHE it was 70%; with STEME, 80%; with weeds and/or crops (setting [1]), 90%; with weeds and/or crops (setting [2]), 10%. The figures for the pest or weed control at 1000 g/ha in the assay on weeds and/or crops (setting [3]), in the assay with weeds and/or crops (setting [4]) and with weeds and/or crops (setting [5]) were 80%, 50% and 70%, respectively. Also, in the assay on ZEAMX, the plant injury at 1000 g/ha turned out to be 20%.
On to `Nc1c(Cl)cc(Cl)cc1C(F)(F)C(=O)O` [Compound 7-253, Ammonium 2-(2-amino-3,5-dichloro-phenyl)-2,2-difluoro-acetate], for which the pest or weed control at 1000 g/ha with ABUTH was determined as 0%; in the assay with AMARE it was 0%; with ECHCG, 0%; with IPOHE, 0%; with weeds and/or crops (setting [1]) it was 60%; in the assay on weeds and/or crops (setting [2]), 10%. Also, the pest or weed control at 1000 g/ha in the assay with weeds and/or crops (setting [3]) stood at 40%; in the assay on weeds and/or crops (setting [4]), 60%; with weeds and/or crops (setting [6]), 0%; in the assay with weeds and/or crops (setting [5]), 70%.
As for `C#Cc1cccc(C(F)(F)C(=O)O)c1Cl` [Compound 1-208, 2-(2-Chloro-3-ethynyl-phenyl)-2,2-difluoro-acetic acid], the pest or weed control at 1000 g/ha in the assay with ABUTH worked out at 100%; in the assay with AMARE it was 90%; in the assay on IPOHE, 90%; in the assay with STEME it was 100%; with weeds and/or crops (setting [1]), 90%; in the assay with weeds and/or crops (setting [2]), 70%. For the same compound, the pest or weed control at 1000 g/ha with weeds and/or crops (setting [3]), in the assay with weeds and/or crops (setting [4]) and in the assay on weeds and/or crops (setting [5]) was 90% throughout. Also, the plant injury at 1000 g/ha with ZEAMX was 80%.
On to `O=C(O)C(F)(F)c1cc(O)ccc1Cl` [Compound 1-61, 2-(2-Chloro-5-hydroxyphenyl)-2,2-difluoroacetic acid], for which the pest or weed control at 1000 g/ha in the assay on ABUTH stood at 0%; in the assay on AMARE it was 20%; in the assay on IPOHE it was 0%; with STEME it was 0%; in the assay on weeds and/or crops (setting [1]), 10%; with weeds and/or crops (setting [2]), 10%. Moreover, the pest or weed control at 1000 g/ha in the assay with weeds and/or crops (setting [3]) was found to be 10%; with weeds and/or crops (setting [4]) it was 10%; in the assay with weeds and/or crops (setting [5]), 20%. In the assay on ZEAMX, the plant injury at 1000 g/ha came to 0%.
Consider `O=C(O)C(F)(F)c1c(Cl)cccc1[N+](=O)[O-]` [Compound 1-67, 2-(2-Chloro-6-nitrophenyl)-2,2-difluoroacetic acid], for which the pest or weed control at 1000 g/ha in the assay on ABUTH stood at 0%; with AMARE it was 0%; in the assay with IPOHE it was 30%; in the assay with STEME it was 0%; in the assay with weeds and/or crops (setting [1]) it was 10%; in the assay with weeds and/or crops (setting [2]) it was 10%. The figures for the pest or weed control at 1000 g/ha with weeds and/or crops (setting [3]), with weeds and/or crops (setting [4]) and with weeds and/or crops (setting [5]) were 10%, 30% and 60%, respectively. The plant injury at 1000 g/ha in the assay on ZEAMX worked out at 10%.
`O=C(O)C(F)(F)c1cccc(O)c1` [Compound 1-5, 2,2-Difluoro-2-(3-hydroxyphenyl)acetic acid]: the pest or weed control at 1000 g/ha in the assay on ABUTH was 10%; in the assay on AMARE it was 10%; with IPOHE, 20%; in the assay with STEME it was 20%; in the assay on weeds and/or crops (setting [1]), 20%; with weeds and/or crops (setting [2]), 10%. For the same compound, the pest or weed control at 1000 g/ha with weeds and/or crops (setting [4]) stood at 20%; in the assay with weeds and/or crops (setting [6]), 10%; with weeds and/or crops (setting [5]) it was 20%. Besides, the plant injury at 1000 g/ha in the assay with ZEAMX came to 10%.
On to `COc1c(Cl)cc(Cl)c(Cl)c1C(F)(F)C(=O)O` [Compound 1-82, 2,2-Difluoro-2-(2,3,5-trichloro-6-methoxy-phenyl)acetic acid], for which the pest or weed control at 1000 g/ha worked out at 60% in the assay with AMARE; 20% in the assay on IPOHE; 30% in the assay on STEME; 10% with weeds and/or crops (setting [1]); 20% with weeds and/or crops (setting [2]); 20% in the assay with weeds and/or crops (setting [3]). Also, the pest or weed control at 1000 g/ha in the assay on weeds and/or crops (setting [4]) amounted to 60%; in the assay with weeds and/or crops (setting [5]), 30%. The plant injury at 1000 g/ha in the assay on ZEAMX turned out to be 0%.
Take `Nc1ccc(Cl)cc1C(F)(F)C(=O)[O-].[Li+]` [Compound 5-251, Lithium;2-(2-amino-5-chloro-phenyl)-2,2-difluoro-acetate]: the “evaluation (100=total damage to plant; 0=no damage to plant)” value in the assay on ABUTH (1000 g/ha) amounted to 10; with AMARE, 20; with IPOHE, 0; with STEME (1000 g/ha), 10; in the assay with ZEAMX, 0. Further, the “damage to plant ABUTH (100=total damage; 0=no damage)” value in the assay on weeds and/or crops (ABUTH) is recorded as 20. For the same compound, the “damage to plant AMARE (100=total damage; 0=no damage)” value with weeds and/or crops (AMARE) is 40. The “damage to plant ECHCG (100=total damage; 0=no damage)” value in the assay on weeds and/or crops (ECHCG) stood at 0. For the same compound, the “damage to plant IPOHE (100=total damage; 0=no damage)” value in the assay with weeds and/or crops (IPOHE) was 20. The “damage to plant STEME (100=total damage; 0=no damage)” value in the assay with weeds and/or crops (STEME) amounted to 20. In addition, in the assay with weeds and/or crops (ZEAMX), the “damage to plant ZEAMX (100=total damage; 0=no damage)” value was determined as 0.
As to `O=C(O)C(F)(F)c1cc(-c2ccc(F)cc2)cc(Cl)c1Cl` [Compound 1-78, 2-(4,5-Dichloro-4′-fluoro-[1,1′-biphenyl]-3-yl)-2,2-difluoroacetic acid], the pest or weed control at 1000 g/ha in the assay on AMARE came to 0%; with IPOHE, 0%; with STEME it was 0%; in the assay with weeds and/or crops (setting [1]), 0%; with weeds and/or crops (setting [2]), 30%; with weeds and/or crops (setting [3]), 10%. In addition, the pest or weed control at 1000 g/ha came out at 50% in the assay with weeds and/or crops (setting [4]) and 40% in the assay with weeds and/or crops (setting [5]). Further, the plant injury at 1000 g/ha in the assay on ZEAMX is 0%.

The values are drawn from patent US20240251792A1, “WEED CONTROL METHOD” (SYNGENTA CROP PROTECTION AG, priority 2021, published 2024).
